# Measurements from patent US20030232851A1, “Viral treatment” (The Procter & Gamble Company, priority 1999, published 2003).
# Values joined by “and” are separate entries in the source; they are usually repeats but may differ in a detail not shown here. Equal entries are not always repeated.
# How the values were obtained:
# [1] = system: HIV-2 virus, CEMROD; assay: In vitro screening against HIV-2 virus, CEMROD: reverse transcriptase activity; assay type: cell-based; parameters: Reverse Transcriptase Activity, samples 1-3 / Reverse Transcriptase Activity, average: unit not given here
# Method: A microtiter-based reveres transcriptase (RT) reaction is utilized (Buckheit et al (1991) AIDS Research and Human Retroviruses 7:295-302). Tritiated thymidine triphosphate (NEN)(TTP) is resuspended in distilled water at 5 Ci/ml. Poly rA and oligo dT are prepared as a stock solution which is kept at −20° C. The RT reaction buffer is prepared fresh on a daily basis and consists of 125 μl 1M EGTA, 125 μl water, 125 μl Triton X-100, 50 μl Tris (pH 7.4), 50 μl 1 MDDT, and 40 μl 1M MgCl2. These three solutions are mixed together in a ratio of 1 part TTP, 2.5 parts poly rA:oligo dT, 2.5 parts reaction buffer and 4 parts distilled water. Ten microliters of this reaction mixture is placed in a round bottom microtiter place and 15 μl of virus containing supernatant is added and mixed. The plate is incubated at 37° C. for 60 minutes. Following reaction, the reaction volume is spotted onto filter mats, washed 6 times for 5 minutes each in a 5% sodium phosphate buffer, 2 times for 1 minute each in distilled water, 2 times for 1 minute each in 70% ethanol, and then dried. The dried filter mat is placed in a plastic sample bag, Betaplate scintillation fluid is added and the bag is heat sealed. Incorporated radioactivity is quantified utilizing a Wallac Microbeta scintillation counter.
# [2] = system: TPA-induced BCBL-1 cells; assay: Kaposi's Sarcoma test: toxicity values; assay type: cell-based; parameters: Toxicity Values, samples 1-3 / Toxicity Values, average: scale not given here
# Method: (§1) The DNA copy number and the toxicity value were measured and compared with Cidofovir.
# [3] = system: HHV8 cell line, TPA-induced BCBL-1 cells; assay: Kaposi's Sarcoma (HHV8) in vitro test, DNA copy number; assay type: cell-based
# Method: as §1
# [4] = molecular target: HIV-1 integrase (Human immunodeficiency virus type 1 group M subtype B, UniProt P04585); assay: HIV-1 integrase inhibition assay; assay type: biochemical; parameters: HIV-1 Integrase Inhibition, sample reading / HIV-1 Integrase Inhibition, mean: unit not given here; conditions: for HIV-1 Integrase Inhibition, sample reading: sample 1, sample 2
# Description: A biochemical integrase assay described by Craigie et at (HIV, vol. 2: A practical Approach) Biochemistry, Molecular Biology and Drug Discovery, Ed. J. Kam 1995) to screen agents for their ability to inhibit HIV-1 integrase. In this system, a kinased oligonucleotide serves as the target of 3′ processing and the subsequent strand transfer reaction. The 3′ processing reaction involves the removal of 2 nucleotides from the 3′ ends of the substrate and this is followed by the strand transfer reaction in which the 3′ ends are joined to the exposed 5′ ends. The 20 μl reaction mixture contains 25 mM MOPS (pH 7.2), […] BSA, 10 mM β-mercaptoethanol, 10% glycerol, 7.5 mM MnCl2, 25 nM (7 ng) substrate (Oligo's Etc., Wilsonville, Oreg.) and 200 nM (128 ng) integrase (NIAID AIDS Research and Reference Reagent Program, Bethesda, Md.). The reaction proceeds at 37° C. for 1-2 hours and is terminated by the addition of 20 μl of sequencing stop solution (JSB Amersham, Arlington Heights, Ill.). The reaction products are visualized by autoradiography following electrophoresis in 15% polyacrylamide 6M Urea gel. The substrate migrates as a 30 mer, the product of 3′ processing migrates as an N-2 band and the strand transfer products migrate more slowly at various sizes larger than the substrate.
# [5] = system: Cryptococcus neoformans; assay: Anti-fungal activity (NCCLS M-27A based), Cryptococcus neoformans; assay type: cell-based
# Method: It was active against cryptococcus neoformans and curvularai lunata. The cidal activity for the C. neoformans is high enough that it is clear […] against this yeast. This test was conducted using a method based upon NCCLS reference method M-27A published in 1997. Solvent, medium and growth controls were set-up with the tests. Once these were read to validate the test performance, the QC fungi were read to insure they had expected results. These steps validated the test system. DMSO was used as a drug-chemical solvent. […] The 90% cut-off is necessary for azoles, which are static and not cidal. The FMC or cidal level was determined by sub-culturing a sample from each tube showing no growth.
# [6] = Table 2 duplicate study, 0.32 μg/ml
# [7] = Table 2 duplicate study, 1 μg/ml
# [8] = Table 2 duplicate study, 1.0 μg/ml
# [9] = Table 2 duplicate study, 3.2 μg/ml
# [10] = Table 2 duplicate study, 32 μg/ml
# [11] = Table 2 duplicate study, 100 μg/ml
compound,measurement,setting,value
"c1csc(-c2nc3cccnc3[nH]2)c1 [2-(2-thienyl)-imidazolo [4,5-b]pyridine]","Reverse Transcriptase Activity, % virus control","[1]; Table 1, 0.32 μg/ml",119%
same,"Reverse Transcriptase Activity, average","[1]; Table 1, 0.32 μg/ml",5947
same,"Reverse Transcriptase Activity, samples 1-3","[1]; Table 1, 0.32 μg/ml",5878 and 5529 and 6435
same,"Reverse Transcriptase Activity, % virus control","[1]; Table 1, 1 μg/ml",103.8%
same,"Reverse Transcriptase Activity, average","[1]; Table 1, 1 μg/ml",5188
same,"Reverse Transcriptase Activity, samples 1-3","[1]; Table 1, 1 μg/ml",5002 and 5086 and 5476
same,"Reverse Transcriptase Activity, % virus control","[1]; Table 1, 1.0 μg/ml",48.1%
same,"Reverse Transcriptase Activity, average","[1]; Table 1, 1.0 μg/ml",2403
same,"Reverse Transcriptase Activity, samples 1-3","[1]; Table 1, 1.0 μg/ml",2812 and 2206 and 2190
same,"Reverse Transcriptase Activity, % virus control","[1]; Table 1, 3.2 μg/ml",84.0%
same,"Reverse Transcriptase Activity, average","[1]; Table 1, 3.2 μg/ml",4201
same,"Reverse Transcriptase Activity, samples 1-3","[1]; Table 1, 3.2 μg/ml",4005 and 4017 and 4580
same,"Reverse Transcriptase Activity, % virus control","[1]; Table 1, 32 μg/ml",8.1%
same,"Reverse Transcriptase Activity, average","[1]; Table 1, 32 μg/ml",407
same,"Reverse Transcriptase Activity, samples 1-3","[1]; Table 1, 32 μg/ml",382 and 390 and 450
same,"Reverse Transcriptase Activity, % virus control","[1]; Table 1, 100 μg/ml",1.4%
same,"Reverse Transcriptase Activity, average","[1]; Table 1, 100 μg/ml",72
same,"Reverse Transcriptase Activity, samples 1-3","[1]; Table 1, 100 μg/ml",80 and 68
same,"Reverse Transcriptase Activity, % virus control",[1]; [6],116.6%
same,"Reverse Transcriptase Activity, average",[1]; [6],5616
same,"Reverse Transcriptase Activity, samples 1-3",[1]; [6],4758 and 5725 and 6365
same,"Reverse Transcriptase Activity, % virus control",[1]; [7],121.1%
same,"Reverse Transcriptase Activity, average",[1]; [7],5833
same,"Reverse Transcriptase Activity, samples 1-3",[1]; [7],4251 and 6264 and 6984
same,"Reverse Transcriptase Activity, % virus control",[1]; [8],51.1%
same,"Reverse Transcriptase Activity, average",[1]; [8],2463
same,"Reverse Transcriptase Activity, samples 1-3",[1]; [8],2776 and 2531 and 2081
same,"Reverse Transcriptase Activity, % virus control",[1]; [9],100.0%
same,"Reverse Transcriptase Activity, average",[1]; [9],4819
same,"Reverse Transcriptase Activity, samples 1-3",[1]; [9],5050 and 5352 and 4054
same,"Reverse Transcriptase Activity, % virus control",[1]; [10],4.1%
same,"Reverse Transcriptase Activity, average",[1]; [10],197
same,"Reverse Transcriptase Activity, samples 1-3",[1]; [10],173 and 177 and 241
same,"Reverse Transcriptase Activity, % virus control",[1]; [11],0.9%
same,"Reverse Transcriptase Activity, average",[1]; [11],44
same,efficacy in treating HIV (in words),[1]; at the higher concentrations,shows efficacy
same,"Toxicity Values, % cell control",[2]; 0.64 μM,110.5%
same,"Toxicity Values, average",[2]; 0.64 μM,1.160
same,"Toxicity Values, samples 1-3",[2]; 0.64 μM,1.034 and 1.201 and 1.245
same,"Toxicity Values, % cell control",[2]; 2 μM,111.7%
same,"Toxicity Values, average",[2]; 2 μM,1.172
same,"Toxicity Values, samples 1-3",[2]; 2 μM,1.155 and 1.182 and 1.179
same,"Toxicity Values, % cell control",[2]; 6.4 μM,111.5%
same,"Toxicity Values, average",[2]; 6.4 μM,1.170
same,"Toxicity Values, samples 1-3",[2]; 6.4 μM,1.198 and 1.119 and 1.193
same,"Toxicity Values, % cell control",[2]; 20 μM,69.5%
same,"Toxicity Values, average",[2]; 20 μM,0.729
same,"Toxicity Values, samples 1-3",[2]; 20 μM,0.701 and 0.706 and 0.782
same,"Toxicity Values, % cell control",[2]; 64 μM,1.5%
same,"Toxicity Values, average",[2]; 64 μM,0.016
same,"Toxicity Values, samples 1-3",[2]; 64 μM,0.020 and 0.016 and 0.013
same,"Toxicity Values, % cell control",[2]; 200 μM,6.4%
same,"Toxicity Values, average",[2]; 200 μM,0.067
same,"Toxicity Values, samples 1-3",[2]; 200 μM,0.068 and 0.067
same,"DNA Copy Number, % virus control",[3]; 0.64 μM,97.2%
same,"DNA Copy Number, average",[3]; 0.64 μM,14122.1 per 3 μl
same,"DNA Copy Number, samples 1-3",[3]; 0.64 μM,16524.7 per 3 μl and 16524.9 per 3 μl and 12316.8 per 3 μl
same,"DNA Copy Number, % virus control",[3]; 2 μM,94.0%
same,"DNA Copy Number, average",[3]; 2 μM,13653.8 per 3 μl
same,"DNA Copy Number, samples 1-3",[3]; 2 μM,13427.5 per 3 μl and 11819.4 per 3 μl and 15714.5 per 3 μl
same,"DNA Copy Number, % virus control",[3]; 6.4 μM,95.5%
same,"DNA Copy Number, average",[3]; 6.4 μM,13876.4 per 3 μl
same,"DNA Copy Number, samples 1-3",[3]; 6.4 μM,11795.6 per 3 μl and 15297.5 per 3 μl and 14536.1 per 3 μl
same,"DNA Copy Number, % virus control",[3]; 20 μM,77.9%
same,"DNA Copy Number, average",[3]; 20 μM,11321.8 per 3 μl
same,"DNA Copy Number, % virus control",[3]; 64 μM,2.9%
same,"DNA Copy Number, average",[3]; 64 μM,427.3 per 3 μl
same,"DNA Copy Number, % virus control",[3]; 200 μM,13.9%
same,"DNA Copy Number, average",[3]; 200 μM,2020.8 per 3 μl
same,"DNA Copy Number, samples 1-3",[3]; 200 μM,1680.4 per 3 μl and 2041.2 per 3 μl and 2340.8 per 3 μl
same,IC50,"[3]; Human gammaherpesvirus 8, BCBL1",36.4 µM
same,EC50,[4],> 497 µM
same,"HIV-1 Integrase Inhibition, mean",[4]; 0.1 μg/ml,10577
same,"HIV-1 Integrase Inhibition, sample reading",[4]; 0.1 μg/ml,11155.2 and 9998.8
same,"HIV-1 Integrase Inhibition, mean",[4]; 1 μg/ml,10104
same,"HIV-1 Integrase Inhibition, sample reading",[4]; 1 μg/ml,10640.4 and 9568.4
same,"HIV-1 Integrase Inhibition, mean",[4]; 10 μg/ml,10580
same,"HIV-1 Integrase Inhibition, sample reading",[4]; 10 μg/ml,10814.1 and 10345.1
same,"HIV-1 Integrase Inhibition, mean",[4]; 100 μg/ml,7214
same,"HIV-1 Integrase Inhibition, sample reading",[4]; 100 μg/ml,7639.4 and 6788.6
same,MFC,"[5]; Cryptococcus neoformans, cidal level",> 32 µg/mL
same,MIC,"[5]; Cryptococcus neoformans, growth inhibited or reduced at least 90%",0.03 µg/mL
same,activity against Cryptococcus neoformans (in words),[5]; in vitro,active
